Measured values reported in publication PMC6940896, “Development of a Highly Efficient Hybrid Peptide That Increases Immunomodulatory Activity Via the TLR4-Mediated Nuclear Factor-κB Signaling Pathway” (International Journal of Molecular Sciences, 2019).
No end group written: not given here.

Key:
TLR4-NF-κB pathway = assay: Western blot of TLR4-NF-κB pathway proteins in CTX-treated mice; format: in vivo, mouse; conditions: CTX-treated mice with or without LTAa, n = 3
Procedure: Sigma-Aldrich, St. Louis, MO, USA) group, a LL-37 group, a Tα1 group, and a LTAa group. For the first 3 days, CTX (80 mg/kg mouse weight) was administered intraperitoneally once daily to establish the immunosuppressed animal model. From days 4 to 10 (7 days), peptides (10 mg/kg mouse weight) were administered intraperitoneally each day. The CTX group was only treated with CTX, and the control group was given sterile saline. The dose volume was 200 μL. Twenty-four hours after the last dose, the mice were killed and their tissues and blood collected for analysis. The body weight index was calculated in the following way:(2) Index (%)=final body weight-[…] body weight/initial body weight ×100% Whole protein in the serum was collected using a whole-protein extraction kit (Nanjing KeyGEN Biotech, Nanjing, China) according to the manufacturer's instructions. The protein concentration was measured using a bicinchoninic acid kit (Nanjing KeyGEN Biotech). The different proteins were separated by sodium dodecyl sulfate polyacrylamide gel electrophoresis and transferred onto polyvinylidene difluoride membranes (Bio-Rad). […]

TLR4/MD-2 = target: T1, TLR4/MD-2 (Mus musculus, UniProt Q9JHF9+Q9QUK6); assay: Cytokine production in RAW264.7 cells with or without TLR4/MD-2 mAb pretreatment; format: cell-based; conditions: then 10 μg/mL peptide 24 h, ELISA, n = 3
T1 construct: endogenous in cells; host or cells: RAW264.7
T1 sequence (Q9QUK6 26-835): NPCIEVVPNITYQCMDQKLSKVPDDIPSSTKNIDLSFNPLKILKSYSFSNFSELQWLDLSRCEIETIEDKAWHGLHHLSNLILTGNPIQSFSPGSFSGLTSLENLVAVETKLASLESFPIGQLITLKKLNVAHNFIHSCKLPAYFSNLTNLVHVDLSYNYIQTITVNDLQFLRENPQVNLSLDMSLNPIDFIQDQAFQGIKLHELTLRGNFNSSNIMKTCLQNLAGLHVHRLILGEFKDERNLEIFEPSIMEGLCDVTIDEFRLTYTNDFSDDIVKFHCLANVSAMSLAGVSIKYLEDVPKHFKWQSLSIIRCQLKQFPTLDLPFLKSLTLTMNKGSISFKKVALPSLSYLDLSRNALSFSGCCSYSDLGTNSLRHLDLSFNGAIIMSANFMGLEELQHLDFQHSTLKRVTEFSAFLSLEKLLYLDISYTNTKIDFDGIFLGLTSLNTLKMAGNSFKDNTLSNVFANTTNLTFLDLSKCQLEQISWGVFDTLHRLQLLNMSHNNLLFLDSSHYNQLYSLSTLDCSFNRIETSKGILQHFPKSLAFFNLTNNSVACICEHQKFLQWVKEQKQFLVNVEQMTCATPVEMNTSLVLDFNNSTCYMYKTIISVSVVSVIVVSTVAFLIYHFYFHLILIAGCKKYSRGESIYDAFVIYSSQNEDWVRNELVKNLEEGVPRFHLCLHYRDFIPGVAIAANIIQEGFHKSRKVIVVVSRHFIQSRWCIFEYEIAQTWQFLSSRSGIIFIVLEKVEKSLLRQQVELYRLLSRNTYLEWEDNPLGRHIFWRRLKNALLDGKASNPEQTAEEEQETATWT
T1 sequence (Q9JHF9 19-160): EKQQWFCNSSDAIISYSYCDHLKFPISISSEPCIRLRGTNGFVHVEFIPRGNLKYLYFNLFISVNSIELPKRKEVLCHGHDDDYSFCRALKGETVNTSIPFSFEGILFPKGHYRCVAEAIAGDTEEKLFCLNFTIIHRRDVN
Procedure: RAW264.7 cells were treated with PBS or an anti-mouse mAbTLR4/MD-2 complex (MTS510 Ab) (eBioscience, San Diego, CA, USA) at 37 °C for 1 h, and RAW264.7 cells were treated with or without 10 μg/mL peptides for 24 h at 37 °C in a moist atmosphere (5% CO2, 95% air). Levels of TNF-α, IL-6, and IL-1β in the culture supernatant were detected by ELISA.

TNF-α, IL-6 and IL-1β production, PBS pretreatment (TLR4/MD-2; RAW264.7, PBS 1 h): significant increase
TNF-α, IL-6 and IL-1β production induced by LTAa after TLR4/MD-2 mAb pretreatment (TLR4/MD-2; RAW264.7, TLR4/MD-2 mAb (MTS510 Ab) 1 h): significantly inhibited
Sequence: IGKEFKRIVQRIKDFLRNLVPRTEKEKKEVVE [LTAa]
TLR4, MyD88 and TRAF6 expression (TLR4-NF-κB pathway): increasing
